# Laboratory results as given in US7608617B2, “Naphthaline derivatives as H3 inverse agonists” (Hoffmann-La Roche Inc., priority 2004, dated 2009).
# Where a name gives a salt, the structure may show the parent alone.
# Target: T1, histamine 3 receptor (H3R) (Homo sapiens, UniProt Q9Y5N1)
# T1 construct: expressed in transfected cells; host or cells: CHO cells (HR3-CHO cell line), membranes
# Experiment: Binding assay with 3H-(R)α-methylhistamine (competition binding, membranes of the human HR3-CHO cell line)
# Settings: competition with 3H(R)α-Methylhistamine 1 nM, Ki calculated from IC50 by Cheng-Prusoff equation
# Method: Binding assay with ^3H—(R)α-methylhistamine
# Saturation binding experiments were performed using HR3—CHO membranes prepared as described in Takahashi, K, Tokita, S., Kotani, H. (2003) J. Pharmacol. Exp. Therapeutics 307, 213-218.
# An appropriate amount of membrane (60 to 80 μg protein/well) was incubated with increasing concentrations of ^3H(R)α-Methylhistamine di-hydrochloride (0.10 to 10 nM). Non specific binding was determined using a 200 fold excess of cold (R)α-Methylhistamine dihydrobromide (500 nM final concentration). The incubation was carried out at room temperature (in deep-well plates shaking for three hours). The final volume in each well was 250 μl. The incubation was followed by rapid filtration on GF/B filters (pre-soaked with 100 μl of 0.5% PEI in Tris 50 mM shaking at 200 rpm for two hours). The filtration was made using a cell-harvester and the filter plates were then washed five times with ice cold washing buffer containing 0.5 M NaCl. After harvesting, the plates were dried at 55° C. for 60 min, then we added scintillation fluid (Microscint 40, 40 microl in each well) and the amount of radioactivity on the filter was determined in Packard top-counter after shaking the plates for two hours at 200 rpm at room temperature.
# Binding Buffer: 50 mM Tris-HCl pH 7.4 and 5 mM MgCl2x 6H2O pH 7.4. Washing Buffer: 50 mM Tris-HCl pH 7.4 and 5 mM MgCl2×6H2O and 0.5 M NaCl pH 7.4:
# Indirect measurement of affinity of H3R inverse agonists: twelve increasing concentrations (ranging from […] to 0.3 nM) of the selected compounds were always tested in competition binding experiments using membrane of the human HR3-CHO cell line. An appropriate amount of protein, e.g. approximately 500 cpm binding of RAMH at Kd, were incubated for 1 hour at room temperature in 250 μl final volume in 96-well plates in presence of ^3H(R)α-Methylhistamine (1 nM final concentration=Kd). […]
# All compounds were tested at a single concentration in duplicates. […] Ki's were calculated from IC50 based on Cheng-Prusoff equation (Cheng, Y, Prusoff, W H (1973) Biochem Pharmacol 22, 3099-3108).
# T1 sequence (Q9Y5N1 whole entry): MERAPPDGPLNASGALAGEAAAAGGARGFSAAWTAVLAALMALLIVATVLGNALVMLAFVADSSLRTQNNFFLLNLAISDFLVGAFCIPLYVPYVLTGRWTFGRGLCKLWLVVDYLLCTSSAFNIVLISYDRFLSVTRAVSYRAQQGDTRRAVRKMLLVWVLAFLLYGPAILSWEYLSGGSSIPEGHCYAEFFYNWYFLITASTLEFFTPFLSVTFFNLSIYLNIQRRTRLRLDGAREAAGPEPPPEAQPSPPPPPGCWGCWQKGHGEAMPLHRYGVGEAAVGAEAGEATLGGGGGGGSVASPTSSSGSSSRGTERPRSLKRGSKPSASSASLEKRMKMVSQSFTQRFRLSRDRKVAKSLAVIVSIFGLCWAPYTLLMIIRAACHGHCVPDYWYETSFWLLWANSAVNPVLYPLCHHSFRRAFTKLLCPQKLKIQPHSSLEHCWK
row,Ki [nM],Compound
1,111,"CC1CCCCN1CCCOc1ccc2cc(C(=O)N(C)Cc3ccccc3)ccc2c1 (stereo not drawn) [Example 13, 6-[3-(2-methyl-piperidin-1-yl)-propoxy]-naphthalene-2-carboxylic acid benzyl-methyl-amide 1:1 hydrochloride]"
2,26,"O=C(c1ccc2cc(OCCCN3CCCCC3)ccc2c1)N1CCCCC1 [Example 1, piperidin-1-yl-[6-(3-piperidin-1-yl-propoxy)-naphthalen-2-yl]-methanone 1:1 hydrochloride]"
3,571,"CC1CCN(C(=O)c2ccc3cc(OCCC4CCCN4C)ccc3c2)CC1 (stereo not drawn) [Example 31, (4-methyl-piperidin-1-yl)-{6-[2-(1-methyl-pyrrolidin-2-yl)-ethoxy]-naphthalen-2-yl}-methanone 1:1 hydrochloride]"
